Measurements: US12435059B2, “AMP-activated protein kinase inhibitors and methods of making and using the same” (The Regents of the University of Colorado, priority 2019, dated 2025)
Like-named read-outs stand apart in the source and are kept apart here.

Tests used:
Assay in all cases: biochemical
Format in all cases: binding
468 kinases [1] = target: 468 kinases (Homo sapiens, UniProt O14936); details: CASK; read-out: % Inhibition @ 100 nM
468 kinases [2] = target: 468 kinases (Homo sapiens, UniProt O43683); details: BUB1; read-out: % Inhibition @ 100 nM
468 kinases [3] = target: 468 kinases (Homo sapiens, UniProt O75582); details: read-out: % Inhibition @ 100 nM
468 kinases [4] = target: 468 kinases (Homo sapiens, UniProt P04049); details: RAF1; read-out: % Inhibition @ 100 nM
468 kinases [5] = target: 468 kinases (Homo sapiens, UniProt P07948); details: LYN; read-out: % Inhibition @ 100 nM
468 kinases [6] = target: 468 kinases (Homo sapiens, UniProt P0C264); details: SgK110; read-out: % Inhibition @ 100 nM
468 kinases [7] = target: 468 kinases (Homo sapiens, UniProt P11362); details: FGFR1; read-out: % Inhibition @ 100 nM
468 kinases [8] = target: 468 kinases (Homo sapiens, UniProt P15735); details: PHKG2; read-out: % Inhibition @ 100 nM
468 kinases [9] = target: 468 kinases (Homo sapiens, UniProt P21127); details: CDC2L1; read-out: % Inhibition @ 100 nM
468 kinases [10] = target: 468 kinases (Homo sapiens, UniProt P27361); details: ERK1; read-out: % Inhibition @ 100 nM
468 kinases [11] = target: 468 kinases (Homo sapiens, UniProt P29320); details: EPHA3; read-out: % Inhibition @ 100 nM
468 kinases [12] = target: 468 kinases (Homo sapiens, UniProt P29322); details: EPHA8; read-out: % Inhibition @ 100 nM
468 kinases [13] = target: 468 kinases (Homo sapiens, UniProt P37023); details: ACVRL1; read-out: % Inhibition @ 100 nM
468 kinases [14] = target: 468 kinases (Homo sapiens, UniProt P51813); details: BMX; read-out: % Inhibition @ 100 nM
468 kinases [15] = target: 468 kinases (Homo sapiens, UniProt P52333); details: JAK3 (JH1domain-catalytic); read-out: % Inhibition @ 100 nM
468 kinases [16] = target: 468 kinases (Homo sapiens, UniProt P53350); details: PLK1; read-out: % Inhibition @ 100 nM
468 kinases [17] = target: 468 kinases (Homo sapiens, UniProt P80192); details: MLK1; read-out: % Inhibition @ 100 nM
468 kinases [18] = target: 468 kinases (Homo sapiens, UniProt Q00535); details: CDK5; read-out: % Inhibition @ 100 nM
468 kinases [19] = target: 468 kinases (Homo sapiens, UniProt Q02750); details: MEK1; read-out: % Inhibition @ 100 nM
468 kinases [20] = target: 468 kinases (Homo sapiens, UniProt Q04912); details: MST1R; read-out: % Inhibition @ 100 nM
468 kinases [21] = target: 468 kinases (Homo sapiens, UniProt Q12852); details: DLK; read-out: % Inhibition @ 100 nM
468 kinases [22] = target: 468 kinases (Homo sapiens, UniProt Q13233); details: MAP3K1; read-out: % Inhibition @ 100 nM
468 kinases [23] = target: 468 kinases (Homo sapiens, UniProt Q16620); details: TRKB; read-out: % Inhibition @ 100 nM
468 kinases [24] = target: 468 kinases (Homo sapiens, UniProt Q16659); details: ERK3; read-out: % Inhibition @ 100 nM
468 kinases [25] = target: 468 kinases (Homo sapiens, UniProt Q6P3R8); details: NEK5; read-out: % Inhibition @ 100 nM
468 kinases [26] = target: 468 kinases (Homo sapiens, UniProt Q8NFD2); details: ANKK1; read-out: % Inhibition @ 100 nM
468 kinases [27] = target: 468 kinases (Homo sapiens, UniProt Q8WXR4); details: MYO3B; read-out: % Inhibition @ 100 nM
468 kinases [28] = target: 468 kinases (Homo sapiens, UniProt Q92772); details: CDKL2; read-out: % Inhibition @ 100 nM
468 kinases [29] = target: 468 kinases (Homo sapiens, UniProt Q9H2X6); details: HIPK2; read-out: % Inhibition @ 100 nM
468 kinases [30] = target: 468 kinases (Homo sapiens, UniProt Q9UM73, C1156Y); details: ALK(C1156Y); read-out: % Inhibition @ 100 nM
468 kinases [31] = target: 468 kinases (Homo sapiens, UniProt Q9UPZ9); details: ICK; read-out: % Inhibition @ 100 nM
468 kinases [32] = target: 468 kinases (Homo sapiens, UniProt Q9Y2K2); details: QSK; read-out: % Inhibition @ 100 nM
468 kinases [33] = target: 468 kinases (Homo sapiens, UniProt Q9Y4K4); details: MAP4K5; read-out: % Inhibition @ 100 nM

SMILES | inhibition at 0.1 µM (468 kinases [1]) [%] | inhibition at 0.1 µM (468 kinases [2]) [%] | inhibition at 0.1 µM (468 kinases [3]; RPS6KA5(Kin.Dom.1-N-terminal)) [%] | inhibition at 0.1 µM (468 kinases [3]; RPS6KA5(Kin.Dom.2-C-terminal)) [%] | inhibition at 0.1 µM (468 kinases [4]) [%] | inhibition at 0.1 µM (468 kinases [5]) [%] | inhibition at 0.1 µM (468 kinases [6]) [%] | inhibition at 0.1 µM (468 kinases [7]) [%] | inhibition at 0.1 µM (468 kinases [8]) [%] | inhibition at 0.1 µM (468 kinases [9]) [%] | inhibition at 0.1 µM (468 kinases [10]) [%] | inhibition at 0.1 µM (468 kinases [11]) [%] | inhibition at 0.1 µM (468 kinases [12]) [%] | inhibition at 0.1 µM (468 kinases [13]) [%] | inhibition at 0.1 µM (468 kinases [14]) [%] | inhibition at 0.1 µM (468 kinases [15]) [%] | inhibition at 0.1 µM (468 kinases [16]) [%] | inhibition at 0.1 µM (468 kinases [17]) [%] | inhibition at 0.1 µM (468 kinases [18]) [%] | inhibition at 0.1 µM (468 kinases [19]) [%] | other results
CCN(CC)CCNC(=O)c1c(C)[nH]c(/C=C2\C(=O)Nc3ccc(CCO)cc32)c1C [Compound No. 10, (Z)—N-(2-(Diethylamino)ethyl)-5-((5-(2-hydroxyethyl)-2-oxoindolin-3-ylidene)methyl)-2,4-dimethyl-1H-pyrrole-3-carboxamide] | 19 | 0 | 11 | 0 | 9 | 6 | 58 | 44 | 94.4 | 0 | 0 | 0 | 0 | 0 | 11 | 17 | 0 | 1 | 0 | 64 | inhibition at 0.1 µM (468 kinases [20]): 5%; inhibition at 0.1 µM (468 kinases [21]): 86%; inhibition at 0.1 µM (468 kinases [22]): 0%; inhibition at 0.1 µM (468 kinases [23]): 61%; inhibition at 0.1 µM (468 kinases [24]): 0%; inhibition at 0.1 µM (468 kinases [25]): 0%; inhibition at 0.1 µM (468 kinases [26]): 53%; inhibition at 0.1 µM (468 kinases [27]): 0%; inhibition at 0.1 µM (468 kinases [28]): 10%; inhibition at 0.1 µM (468 kinases [29]): 58%; inhibition at 0.1 µM (468 kinases [30]): 90%; inhibition at 0.1 µM (468 kinases [31]): 0%; inhibition at 0.1 µM (468 kinases [32]): 0%; inhibition at 0.1 µM (468 kinases [33]): 52%
CCN(CC)CCNC(=O)c1c(C)[nH]c(/C=C2\C(=O)Nc3ccc(CCC(N)=O)cc32)c1C [Compound No. 16, (Z)-5-((5-(3-Amino-3-oxopropyl)-2-oxoindolin-3-ylidene)methyl)-N-(2-(diethylamino)ethyl)-2,4-dimethyl-1H-pyrrole-3-carboxamide] | 34 | 21 | 0 | 17 | 0 | 9 | 0 | 14 | 97.2 | 7 | 13 | 14 | 0 | 0 | 8 | 48 | 28 | 5 | 0 | 56 | inhibition at 0.1 µM (468 kinases [20]): 0%; inhibition at 0.1 µM (468 kinases [21]): 100%; inhibition at 0.1 µM (468 kinases [22]): 36%; inhibition at 0.1 µM (468 kinases [23]): 83%; inhibition at 0.1 µM (468 kinases [24]): 9%; inhibition at 0.1 µM (468 kinases [25]): 19%; inhibition at 0.1 µM (468 kinases [26]): 66%; inhibition at 0.1 µM (468 kinases [27]): 0%; inhibition at 0.1 µM (468 kinases [28]): 5%; inhibition at 0.1 µM (468 kinases [29]): 99.5%; inhibition at 0.1 µM (468 kinases [30]): 86%; inhibition at 0.1 µM (468 kinases [31]): 88%; inhibition at 0.1 µM (468 kinases [32]): 0%; inhibition at 0.1 µM (468 kinases [33]): 53%
